This note sets out measurements from publication PMC4467156, “A new chemical inhibitor of angiogenesis and tumorigenesis that targets the VEGF signaling pathway upstream of Ras” (Oncotarget, 2015).

Where only a bound is given, the exact number is not on record here.

In series [1] the test system is neovascular response to FGF-2. The experiment in a line: Mouse sponge angiogenesis assay. It counts as in vivo. To be noted: Balb/c mice, COB223 100 μM injected into sponge, day 7. How it is done:
Disc Cellspon cellulose sponges (thickness 2 mm, diameter 10 mm, Cellomeda; Turku, Finland) were implanted under the skin of Balb-c mice under general anesthesia. Mice were divided in three groups receiving either DMSO, FGF-2, or FGF-2 and COB223 (groups of respectively 6, 7 and 8 mice). […] DMSO, FGF-2 and/or COB223 (50 μL) were injected again into the sponges through the skin on day 1 and 2. A third injection of COB223 alone was performed on day 4. On day 7, the vascularization of the sponges was imaged by non-invasive fluorescence imaging after i.p. injection of RAFT-(cRGD)4 (Angiostamp^TM, Fluoptics, Grenoble, France) as described in [9]. The mice were then anesthetized and sacrificed by cervical dislocation on day 7 and the sponges were rapidly excised and photographed. Each sponge was then homogenized in 1 mL RIPA lysis buffer and the supernatants were used for quantification. The extent of vascularization of the sponge implants was assessed by measuring the amount of hemoglobin using the Drabkin's reagent (Sigma).

The target in a further series is MEK1 (Homo sapiens, UniProt Q02750). The experiment in a line: In vitro kinase assay MEK1. To be noted: concentrations up to 50 μM. In kind it is biochemical. How it is done: (§1) We first wondered whether COB223 required to be internalized to exert its biological effect. For this, we synthesized a covalent complex between BSA and COB223 and purified it. […] In vitro kinase assays were performed with a panel of purified protein-kinases involved in mitogenic signaling, including VEGFR2, FGFR1, FGFR2, PDGFRß, Met, Raf, MEK1, ERK1, ERK2, PKCα, PKCβI, PKCβII, PKCζ as indicated in Table 2. […] We then analyzed the effect of COB223 on VEGF-induced phosphorylations of VEGFR2, MEK and ERK1/2 (Figure 9). […] (Figure 9A, 9B). […] It was also specific of the p42/p44 MAP kinase pathway as activation of p38 MAP kinase phosphorylation in HUVEC cells by VEGF or serum was unaffected by COB223 (data not shown). The activation of src phosphorylation by VEGF in HUVECs was also unaffected by COB223 (data not shown).
MEK1, sequence (Q02750 whole entry, species assumed): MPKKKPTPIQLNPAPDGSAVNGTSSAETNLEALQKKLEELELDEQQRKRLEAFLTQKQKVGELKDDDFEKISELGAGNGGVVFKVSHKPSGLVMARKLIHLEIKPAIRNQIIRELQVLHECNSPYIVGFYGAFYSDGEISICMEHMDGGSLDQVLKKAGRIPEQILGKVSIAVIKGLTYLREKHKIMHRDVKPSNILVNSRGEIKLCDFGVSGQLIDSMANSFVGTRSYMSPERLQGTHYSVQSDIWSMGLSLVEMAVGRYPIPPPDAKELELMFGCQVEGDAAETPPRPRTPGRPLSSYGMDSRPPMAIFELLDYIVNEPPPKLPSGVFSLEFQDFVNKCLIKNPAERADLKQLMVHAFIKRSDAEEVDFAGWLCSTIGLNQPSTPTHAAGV

The target of another series is VEGFR2 (KDR) (Homo sapiens, UniProt P35968). The experiment in a line: In vitro kinase assay VEGFR2. In kind it is biochemical. To be noted: concentrations up to 50 μM. How it is done: as §1
VEGFR2 (KDR), sequence (P35968 20-1356, species assumed): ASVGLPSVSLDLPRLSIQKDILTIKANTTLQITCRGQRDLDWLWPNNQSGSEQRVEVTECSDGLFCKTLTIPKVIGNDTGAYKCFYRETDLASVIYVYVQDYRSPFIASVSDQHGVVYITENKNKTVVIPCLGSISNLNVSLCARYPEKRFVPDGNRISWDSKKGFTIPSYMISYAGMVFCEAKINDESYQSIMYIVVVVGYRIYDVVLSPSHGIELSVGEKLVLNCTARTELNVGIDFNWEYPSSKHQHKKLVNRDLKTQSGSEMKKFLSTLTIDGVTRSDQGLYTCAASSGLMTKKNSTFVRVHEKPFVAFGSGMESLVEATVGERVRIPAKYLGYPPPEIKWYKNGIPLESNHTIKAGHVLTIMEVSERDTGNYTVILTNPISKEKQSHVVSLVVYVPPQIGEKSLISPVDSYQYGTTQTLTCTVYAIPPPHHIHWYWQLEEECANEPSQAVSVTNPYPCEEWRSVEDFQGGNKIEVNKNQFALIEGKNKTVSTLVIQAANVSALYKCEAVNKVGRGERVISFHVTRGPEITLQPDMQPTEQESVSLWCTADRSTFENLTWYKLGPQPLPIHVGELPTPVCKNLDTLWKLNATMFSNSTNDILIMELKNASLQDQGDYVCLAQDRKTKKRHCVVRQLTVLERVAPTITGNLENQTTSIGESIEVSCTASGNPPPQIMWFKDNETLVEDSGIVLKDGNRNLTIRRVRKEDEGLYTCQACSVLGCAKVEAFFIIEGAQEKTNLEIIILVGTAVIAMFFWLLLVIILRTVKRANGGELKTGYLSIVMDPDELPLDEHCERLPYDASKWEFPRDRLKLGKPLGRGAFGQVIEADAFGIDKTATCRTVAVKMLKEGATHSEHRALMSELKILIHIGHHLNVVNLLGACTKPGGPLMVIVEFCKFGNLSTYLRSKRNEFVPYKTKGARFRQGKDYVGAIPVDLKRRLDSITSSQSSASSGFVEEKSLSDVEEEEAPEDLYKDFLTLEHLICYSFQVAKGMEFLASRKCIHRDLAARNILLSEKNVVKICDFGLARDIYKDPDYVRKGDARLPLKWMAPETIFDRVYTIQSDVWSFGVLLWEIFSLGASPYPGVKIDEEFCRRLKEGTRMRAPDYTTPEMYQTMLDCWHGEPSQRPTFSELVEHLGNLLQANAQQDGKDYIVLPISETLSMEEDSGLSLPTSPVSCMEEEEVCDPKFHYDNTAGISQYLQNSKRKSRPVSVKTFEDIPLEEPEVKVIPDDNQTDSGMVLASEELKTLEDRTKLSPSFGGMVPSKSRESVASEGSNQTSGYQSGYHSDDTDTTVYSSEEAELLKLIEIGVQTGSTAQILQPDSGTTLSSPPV
The next series concerns 3T3 cells. The experiment in a line: Cell viability WST-1, 3T3. In kind it is cell-based. Conditions: confluent 3T3, 24 h at 37°C. How it is done:
Once they had reached confluency, cells were kept for 24 hours in medium supplemented with 0.5% FCS (LLC/2 and 3T3 cells) or 2.5% FCS (HUVEC and HMVEC-d cells), in the presence of COB223 at different concentrations. WST-1 assay (Roche Diagnostic, Meylan, France) was then performed according to the manufacturer's instructions.

The target in another series is ERK1 (Homo sapiens, UniProt P27361). The series is described as follows: In vitro kinase assay ERK1. In kind it is biochemical. Conditions: concentrations up to 50 μM. How it is done: as §1
ERK1, sequence (P27361 whole entry, species assumed): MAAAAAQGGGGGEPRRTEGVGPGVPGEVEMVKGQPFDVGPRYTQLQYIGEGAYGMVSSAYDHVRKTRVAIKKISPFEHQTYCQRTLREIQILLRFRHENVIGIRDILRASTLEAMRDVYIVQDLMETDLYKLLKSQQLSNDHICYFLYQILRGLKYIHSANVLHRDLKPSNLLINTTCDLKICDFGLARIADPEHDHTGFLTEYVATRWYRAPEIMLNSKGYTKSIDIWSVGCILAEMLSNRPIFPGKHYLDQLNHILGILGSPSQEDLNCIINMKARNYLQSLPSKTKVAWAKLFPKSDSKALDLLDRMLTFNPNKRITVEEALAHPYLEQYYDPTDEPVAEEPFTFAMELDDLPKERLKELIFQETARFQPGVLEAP
Another series concerns HUVEC cells. The experiment in a line: Boyden chamber cell migration assay. In kind it is cell-based, human. To be noted: 25 μM COB223 in upper chamber. As to the method: The assay was performed using 24-multiwell plates and individual cell culture inserts bearing a porous (size of pores: 3 μm) and dyed bottom membrane, which were purchased from BD (FluoroBlok^TM). HUVEC cells were rendered fluorescent by incubation for 24 h in the presence of 5 μg/ml of Di-I (1,1′-dioctadecyl-3,3,3′3′-tetramethylindocarbocyanine perchlorate) and subsequently seeded (5 × 10^4 cells/insert) in the upper chambers (inserts) in serum-free culture medium supplemented with 25 μM COB223 or with vehicle (DMSO). Serum supplemented medium (5% FCS) was placed in the lower chambers (plate wells). After incubation for 4 h or 24 h at 37°C, the fluorescence of cells that had passed through the dyed membrane was measured on a plate reader at 540 nm/570 nm excitation/emission wavelengths. […]
Figure S1: Effect of COB223 on endothelial cell migration. […] Wound closure was measured after 24 h and 48 h of incubation as described in Material and Methods. […]
(B) Boyden chamber assay: The technique is described in Material and Methods. We measured the passage of fluorescently labeled HUVEC cells through a 3 μm-porous membrane in response to fetal calf serum used as a chemo-attractant. […] The Figure represents the mean fluorescence ± SD of duplicate determinations after 24 h or 48h of incubation from two independent experiments. […]

For another series, the system named is HMVECd cells. The experiment in a line: Scratch wound closure assay, primary HMVECd. It counts as cell-based. To be noted: Homo sapiens, Endothelial cell; primary dermal microvascular endothelial cells, 10% FCS. How it is done:
Figure 3 Endothelial cell-specific inhibition of wound closure by COB223 The dose-dependent effect of COB223 on cellular wound closure was measured as described in Material and Methods on either HMVECd or on 3T3 cells. The results are expressed as the percentage of wound closure (with closure observed in the presence of 10% FCS taken as 100%) : mean values +/− SD from three experiments.
Confluent cell monolayers were wounded with a plastic pipet tip, washed gently with phosphate buffer saline (PBS) and treated with complete media containing molecules, as indicated. Cells were placed at 37°C into the incubator and photographed at indicated times. Quantitation of closure of the monolayer was performed using the NIH Image J program (http://rsbweb.nih.gov/ij/). Results are expressed as percentage of wound closure at t = 24 h as compared to the initial wound at t = 0 h.

The next series addresses FGFR1 (Homo sapiens, UniProt P11362). The experiment in a line: In vitro kinase assay FGFR1. In kind it is biochemical. Conditions: concentrations up to 50 μM. As to the method: as §1
Another series relates to src phosphorylation. The series is described as follows: src phosphorylation in HUVECs. It counts as cell-based, human. To be noted: data not shown.
For the next series, the target named is PKCα (Homo sapiens, UniProt P17252). The series is described as follows: In vitro kinase assay PKCα. In kind it is biochemical. To be noted: concentrations up to 50 μM. As to the method:
as §1

FGFR1, sequence (P11362 22-822, species assumed): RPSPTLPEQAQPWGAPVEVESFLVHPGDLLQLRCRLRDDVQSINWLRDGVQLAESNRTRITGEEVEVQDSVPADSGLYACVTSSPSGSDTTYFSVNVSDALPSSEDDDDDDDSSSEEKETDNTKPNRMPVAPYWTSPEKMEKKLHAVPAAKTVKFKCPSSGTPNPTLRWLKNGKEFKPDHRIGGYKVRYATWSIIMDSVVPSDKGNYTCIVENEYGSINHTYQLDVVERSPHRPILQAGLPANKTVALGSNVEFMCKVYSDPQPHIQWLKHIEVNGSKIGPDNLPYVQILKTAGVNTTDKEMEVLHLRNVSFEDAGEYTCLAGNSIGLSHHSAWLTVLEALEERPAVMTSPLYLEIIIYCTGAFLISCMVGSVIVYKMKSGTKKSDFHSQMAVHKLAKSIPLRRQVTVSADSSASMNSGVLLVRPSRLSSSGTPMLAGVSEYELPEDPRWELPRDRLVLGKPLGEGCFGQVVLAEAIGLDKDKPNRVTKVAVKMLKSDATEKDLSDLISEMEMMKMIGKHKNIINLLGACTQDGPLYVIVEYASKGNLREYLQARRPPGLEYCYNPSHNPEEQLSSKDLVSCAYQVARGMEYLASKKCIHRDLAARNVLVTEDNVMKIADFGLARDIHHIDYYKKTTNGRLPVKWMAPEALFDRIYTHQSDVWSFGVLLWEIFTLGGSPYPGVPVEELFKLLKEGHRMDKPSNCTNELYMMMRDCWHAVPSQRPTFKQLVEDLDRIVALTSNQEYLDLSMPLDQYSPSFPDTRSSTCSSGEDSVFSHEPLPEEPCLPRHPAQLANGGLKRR

A word on the EC50: it is the concentration that produces a half-maximal response. Consider `CN(C)c1cccc2c(S(=O)(=O)NCCCN3CCN(CCCNC(=O)OC(C)(C)C)CC3)cccc12` [COB223, tert-Butyl 3-(4-(3-(5-(dimethylamino)naphthalene-1-sulfonamido)propyl)piperazin-1-yl) propylcarbamate], for which, in [1], the “neovascular response to FGF-2 (hemoglobin content and fluorescence imaging)” value is “strong inhibition”. The “kinase inhibition” value at MEK1, at VEGFR2 (KDR), at ERK1, at FGFR1 and at PKCα was “None of them was inhibited” in each case. Besides, the cytotoxic concentrations with 3T3 cells was greater than 50 µM. Further, the “migration towards fetal calf serum (Boyden chamber)” value with HUVEC cells is “significantly inhibited”. This compound also gave a half-maximal effective concentration (EC50) with HMVECd cells of 25 µM. The “activation of src phosphorylation by VEGF” value with src phosphorylation was “unaffected”.
